Data from publication PMC4581690, “Targeting Lysine Deacetylases (KDACs) in Parasites” (PLoS Neglected Tropical Diseases, 2015).
Where two headings read alike, the source gives them in different places.

Key:
L929 mouse fibroblast = test: CYT vt: cytotoxicity viability assay; format: cell-based
T. brucei strain S427 = test: HAT vt: Human African trypanosoma viability assay; format: cell-based; conditions: 72 hour, resazurin, read-out: measured activity (IC50), HAT vt, TbbS427
[1] = test system: L. donovani strain MHOM/SD/00/LS; test: LEI axe: Leishmania axenic amastigote assay; format: cell-based
P. falciparum 3D7 strain = test: MAL vt: Malaria viability assay; format: cell-based; conditions: Plasmodium falciparum
Haemonchus contortus = test: microbe, parasite or virus in culture; format: cell-based; conditions: 96 hour, read-out: measured activity (EC50), Endoparasites_DR, H. contortus
Brugia malayi = test: Endoparasites_DR: endoparasites dose response assay, B. malayi; format: cell-based
Dirofilaria immitis = test: Endoparasites_DR: endoparasites dose response assay, D. immitis; format: cell-based; conditions: 72 h, read-out: measured activity (EC50), Endoparasites_DR, D. immitis
[2] = test system: parasite species and L929 mouse fibroblast; test: In vitro screening of compounds against parasite panel and mammalian cell line (overall statements); format: cell-based
human cancer cell lines = test system: human cancer cell lines; design: method as in PMID 23526814; conditions: 8b and 10c therein; cited from earlier work
[3] = Mus musculus, L929, read-out: measured activity (IC50), CYT vt, L929
[4] = 72 hour, axenic amastigotes, resazurin, read-out: measured activity (IC50), LEI axe, Ld1S
[5] = 3D7, 0.25 h, timepoint 15 minute, read-out: measured activity (IC50), MAL vt, PfDd2
[6] = Mus musculus, Table 2, column H. sapiens, same values as L929 in Table 1, read-out: EC50(IC50)
[7] = 120 h, 5 day, read-out: measured activity (EC50), Endoparasites_DR, B. malayi
[8] = Table 2, column B. malayi, read-out: EC50(IC50)

Question: With O=C(/C=C/c1ccc(NC(=O)C(Cc2ccccc2)c2ccccc2)cn1)NO (stereo not drawn) [MC2625] as the molecule, how does the IC50 (L929 mouse fibroblast; [3]) read?
Answer: Its IC50 is 311 nM.

Question: What about the IC50 (T. brucei strain S427) of the same molecule?
Answer: The IC50 was 1180 nM.

Question: And the IC50 [1, 4]?
Answer: The IC50 was over 5000 nM.

Question: And the IC50 (P. falciparum 3D7 strain; [5])?
Answer: The IC50 was 22 nM.

Question: Which results are given for CN(C)Cc1ccc(S(=O)(=O)n2ccc3cc(/C=C/C(=O)NO)ccc32)cc1 [MC3031]?
Answer: IC50 (L929 mouse fibroblast; [3]): 555 nM; IC50 (T. brucei strain S427): 267 nM; IC50 [1, 4]: > 5000 nM

Question: What does the source list for CCCCCCCC(=O)SCC/C=C/[C@@H]1CC(=O)NCc2nc(cs2)C2=N[C@@](C)(CS2)C(=O)N[C@@H](C(C)C)C(=O)O1 [SD-L-148, Largazole, reference compound]?
Answer: IC50 (L929 mouse fibroblast; [3]): 101 nM; EC50 (Haemonchus contortus): 7100 nM

Question: Which IC50 (P. falciparum 3D7 strain; [5]) does the source give for O=C(CCCCCCC(=O)Nc1ccccc1)NO [GRM1, SAHA, reference compound] here?
Answer: Its IC50 is 152 nM.

Question: Which IC50 (L929 mouse fibroblast; [3]) does the source give for CC(C)(C)OC(=O)Nc1cccc(-c2cc(C(=O)NCCCCCCC(=O)NO)no2)c1 [MC2727a] here?
Answer: Its IC50 is 2350 nM.

Question: What about the IC50 (P. falciparum 3D7 strain; [5]) of the same molecule?
Answer: Its IC50 is 960 nM.

Question: For COc1cc(-c2ccccc2)nc(SCc2ccc(/C=C/C(=O)NO)cc2)n1 [MC2126], which IC50 (L929 mouse fibroblast; [3]) is on record?
Answer: The IC50 was 1760 nM.

Question: What about the IC50 (T. brucei strain S427) of the same molecule?
Answer: The IC50 was 441 nM.

Question: What about the IC50 [1, 4] of the same molecule?
Answer: Its IC50 is over 5000 nM.

Question: What about the IC50 (P. falciparum 3D7 strain; [5]) of the same molecule?
Answer: The IC50 was 1920 nM.

Question: With CN1CCc2c(c3ccccc3n2Cc2ccc(C(=O)NO)cc2)C1 [GRM2, Tubastatin, reference compound] as the molecule, how does the IC50 (L929 mouse fibroblast; [3]) read?
Answer: Its IC50 is 6220 nM.

Question: And the IC50 (T. brucei strain S427)?
Answer: Its IC50 is 2700 nM.

Question: And the IC50 [1, 4]?
Answer: The IC50 was over 5000 nM.

Question: With Cn1cc(/C=C/C(=O)c2cccc(NC(=O)OC(C)(C)C)c2)cc1C(=O)NO [MC2776] as the molecule, how does the IC50 (L929 mouse fibroblast; [6]) read?
Answer: Its IC50 is over 10000 nM.

Question: And the EC50 (Brugia malayi; [7])?
Answer: Its EC50 is 4390 nM.

Question: And the EC50 (Brugia malayi; [8])?
Answer: The EC50 was 4390 nM.

Question: What about the EC50 (Dirofilaria immitis) of the same molecule?
Answer: Its EC50 is over 10000 nM.

Question: What about the “efficacy in the protists” value ([2]; T. brucei, L. donovani, P. falciparum) of the same molecule?
Answer: Its value is “did not show any efficacy”.

Question: What about the IC50 (human cancer cell lines) of the same molecule?
Answer: Its IC50 is over 10000 nM.

Question: Which results are given for O=C(CCCCCSc1nc2ccccc2c(=O)[nH]1)NO [MC1862]?
Answer: IC50 (L929 mouse fibroblast; [3]): 7120 nM; IC50 (P. falciparum 3D7 strain; [5]): 1150 nM

Question: What does the source list for CC(C)(C)OC(=O)Nc1ccc(-c2cc(C(=O)NCCCCCCC(=O)NO)no2)cc1 [MC2726]?
Answer: IC50 (L929 mouse fibroblast; L929 mouse fibroblast, read-out: measured activity (IC50), CYT vt, L929): 1920 nM; IC50 (P. falciparum 3D7 strain; [5]): 189 nM

Question: Which IC50 (L929 mouse fibroblast; [6]) does the source give for CC(C)(C)OC(=O)Nc1cccc(C(=O)/C=C/c2ccc(/C=C/C(=O)NO)cc2)c1 [MC2780] here?
Answer: The IC50 was 4810 nM.

Question: What about the EC50 (Brugia malayi; [7]) of the same molecule?
Answer: Its EC50 is 2530 nM.

Question: And the EC50 (Brugia malayi; [8])?
Answer: Its EC50 is 2530 nM.

Question: And the EC50 (Dirofilaria immitis)?
Answer: The EC50 was 8140 nM.

Question: And the IC50 (T. brucei strain S427)?
Answer: Its IC50 is 623 nM.

Question: And the IC50 [1, 4]?
Answer: Its IC50 is 473 nM.

Question: And the IC50 ([1]; Table 2, column L. donovani, read-out: EC50(IC50))?
Answer: Its IC50 is 470 nM.

Question: And the IC50 (P. falciparum 3D7 strain; [5])?
Answer: The IC50 was 56 nM.

Question: And the IC50 (P. falciparum 3D7 strain; 3D7, Table 2, column P. falciparum, read-out: EC50(IC50))?
Answer: The IC50 was 60 nM.

Question: And the activity across parasites [2]?
Answer: The activity across parasites was “pan-parasite potential”.

Question: And the “IC50 on human cancer cell lines” value (human cancer cell lines)?
Answer: The value was “more potent IC50”.

Question: Which IC50 (L929 mouse fibroblast; [3]) does the source give for O=C(CCCCSc1nc(-c2ccc(-c3ccccc3)cc2)cc(=O)[nH]1)NO [MC1742] here?
Answer: Its IC50 is 1510 nM.

Question: And the IC50 (P. falciparum 3D7 strain; [5])?
Answer: The IC50 was under 10 nM.
